Assay results from patent publication US20210040118A1, “IMMUNOMODULATORS, COMPOSITIONS AND METHODS THEREOF” (BETTA PHARMACEUTICALS CO., LTD, priority 2018, published 2021).

Target: T1, PD-1/PD-L1 (Homo sapiens, UniProt Q9NZQ7)
T1 construct: Recombinant human PD-L1 protein (19-238) with a His-tag at the C-terminus; purchased AcroBiosystems PD1-H5229 (PD-L1); PD1-H5257 (PD-1)
Experiment: PD-1/PD-L1 homogenous time-resolved fluorescence (HTRF) binding assay
Conditions: recombinant human PD-L1 (19-238) His-tag / human PD-1 (25-167) Fc tag
Method in brief: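 Inhibitors were preincubated 40 min at 25°C with 10 nM His-tagged human PD-L1 (19-238) and 3 nM Fc-tagged human PD-1 (25-167) in PBS pH 7.4 containing Tween-20, BSA and 1% DMSO. After 60 min with europium anti-human IgG and anti-His-APC, 665/620 nm signal ratio gave IC50 via percent-control fit.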

T1 sequence (Q9NZQ7 19-238): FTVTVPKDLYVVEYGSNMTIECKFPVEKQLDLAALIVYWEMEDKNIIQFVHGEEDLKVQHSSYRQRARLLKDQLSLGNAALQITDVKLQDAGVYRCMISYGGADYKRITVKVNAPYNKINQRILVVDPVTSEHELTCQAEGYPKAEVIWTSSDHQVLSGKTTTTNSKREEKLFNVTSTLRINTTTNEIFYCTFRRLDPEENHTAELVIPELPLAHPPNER

SMILES | IC50 (class symbols) [nM] | IC50 (numeric values) [nM]
O=C(Nc1cccc(-c2cccc3c2CCN3C(=O)c2nc3c(s2)CNCC3)c1Cl)c1ncc(CNCCO)s1 [Example 101, N-(2-chloro-3-(1-(4,5,6,7-tetrahydrothiazolo[5,4-c]pyridine-2-carbonyl)indolin-4-yl)phenyl)-5-(((2-hydroxyethyl)amino)methyl)thiazole-2-carboxamide] | < 25 | –
Cc1nc(C(=O)N2CCc3c(-c4cccc5c4CCN5C(=O)c4nc(C)c(CN[C@H](C(=O)O)C5CCOCC5)s4)cccc32)sc1CN[C@H](C(=O)O)C1CCOCC1 [Example 57, (2S,2'S)-2,2′-(2,2′-(4,4′-biindoline-1,1′-diylbis(oxomethylene))bis(4-methylthiazole-5,2-diyl))bis(methylene)bis(azanediyl)bis(2-(tetrahydro-2H-pyran-4-yl)acetic acid)] | < 25 | –
Cc1c(Nc2nccc3cc(CNCC(=O)N(C)CCO)cnc23)cccc1-c1cccc2c1CCN2C(=O)C1=NC2CCN(CC(=O)O)CC2S1 (stereo not drawn) [Example 166, 2-(2-(4-(3-((3-(((2-((2-hydroxyethyl)(methyl)amino)-2-oxoethyl)amino)methyl)-1,7-naphthyridin-8-yl)amino)-2-methylphenyl)indoline-1-carbonyl)-3a,6,7,7a-tetrahydrothiazolo[5,4-c]pyridin-5(4H)-yl)acetic acid] | < 25 | –
Cc1c(NC(=O)c2nc3c(s2)CNCC3)cccc1-c1cccc(NC(=O)c2nc3c(s2)CN(C)CC3)c1Cl [Example 50, N-(2-chloro-2′-methyl-3′-(4,5,6,7-tetrahydrothiazolo[5,4-c]pyridine-2-carboxamido)biphenyl-3-yl)-5-methyl-4,5,6,7-tetrahydrothiazolo[5,4-c]pyridine-2-carboxamide] | < 25 | –
CN1CCc2nc(C(=O)Nc3cccc(-c4cccc(NC(=O)c5nc6c(s5)CN(C)CC6)c4Cl)c3Cl)sc2C1 [Example 44, N,N′-(2,2′-dichloro-[1,1′-biphenyl]-3,3′-diyl)bis(5-methyl-4,5,6,7-tetrahydrothiazolo[5,4-c]pyridine-2-carboxamide)] | – | 0.62
O=C(O)CN1C2CCC1c1sc(C(=O)N3CCc4c(-c5cccc6c5CCN6C(=O)c5nc6c(s5)C5CCC(C6)N5CC(=O)O)cccc43)nc1C2 [Example 110, 2,2′-(([4,4′-biindoline]-1,1′-dicarbonyl)bis(5,6,7,8-tetrahydro-4H-5,8-epiminocyclohepta[d]thiazole-2,9-diyl))diacetic acid] | < 25 | –
Cc1nc(C(=O)Nc2cccc(-c3cccc(NC(=O)c4nc(C)c(CN[C@H](C(=O)O)C5CCOCC5)s4)c3Cl)c2C)sc1CN[C@H](C(=O)O)C1CCOCC1 [Example 55, (2S,2'S)-2,2′-(2,2′-(2-chloro-2′-methylbiphenyl-3,3′-diyl)bis(azanediyl)bis(oxomethylene)bis(4-methylthiazole-5,2-diyl))bis(methylene)bis(azanediyl)bis(2-(tetrahydro-2H-pyran-4-yl)acetic acid)] | < 25 | –
CN(C)C(=O)CN1CCc2nc(C(=O)N3CCc4c(-c5cccc6c5CCN6C(=O)c5nc6c(s5)CN(CC(=O)O)CC6)cccc43)sc2C1 [Example 109, 2-(2-(1′-(5-(2-(dimethylamino)-2-oxoethyl)-4,5,6,7-tetrahydrothiazolo[5,4-c]pyridine-2-carbonyl)-[4,4′-biindoline]-1-carbonyl)-6,7-dihydrothiazolo[5,4-c]pyridin-5(4H)-yl)acetic acid] | < 25 | –
CCOC(=O)CN1CCc2nc(C(=O)Nc3cccc(-c4cccc(NC(=O)c5ccc6c(n5)CCNC6)c4C)c3C)ccc2C1 [Example 170, ethyl 2-(2-((2,2′-dimethyl-3′-(5,6,7,8-tetrahydro-1,6-naphthyridine-2-carboxamido)-[1,1′-biphenyl]-3-yl)carbamoyl)-7,8-dihydro-1,6-naphthyridin-6(5H)-yl)acetate] | < 25 | –

Second part, the molecule after the results:

IC50 (class symbols) [nM] | IC50 (numeric values) [nM] | SMILES
< 25 | – | Cc1nc(C(=O)Nc2cccc(-c3cccc4c3CCN4C(=O)c3nc(C)c(CN[C@H](C(=O)O)C4CCOCC4)s3)c2)sc1CN[C@H](C(=O)O)C1CCOCC1 [Example 63, (S)-2-((2-(3-(1-(5-(((S)-carboxy(tetrahydro-2H-pyran-4-yl)methylamino)methyl)-4-methylthiazole-2-carbonyl)indolin-4-yl)phenylcarbamoyl)-4-methylthiazol-5-yl)methylamino)-2-(tetrahydro-2H-pyran-4-yl)acetic acid]
< 25 | – | Cc1c(Nc2nccc3cc(CN[C@@H](C)C(=O)O)cnc23)cccc1-c1cccc2c1CCN2C(=O)C1=NC2CCN(CC(=O)O)CC2S1 (stereo partly drawn) [Example 163, ((8-((3-(1-(5-(carboxymethyl)-3a,4,5,6,7,7a-hexahydrothiazolo[5,4-c]pyridine-2-carbonyl)indolin-4-yl)-2-methylphenyl)amino)-1,7-naphthyridin-3-yl)methyl)alanine]
< 25 | – | O=C(c1ncc(CNCCO)s1)N1CCc2c(-c3cccc4c3CCN4C(=O)c3nc4c(s3)CNCC4)cccc21 [Example 99, (5-(((2-hydroxyethyl)amino)methyl)thiazol-2-yl)(1′-(4,5,6,7-tetrahydrothiazolo[5,4-c]pyridine-2-carbonyl)-[4,4′-biindolin]-1-yl)methanone]
< 25 | – | Cc1c(Nc2nccc3cc(CNCC(=O)N(C)C)cnc23)cccc1-c1cccc(Nc2nccc3cc(CNCC(F)(F)F)cnc23)c1C [Example 146, 2-(((8-((2,2′-dimethyl-3′-((3-(((2,2,2-trifluoroethyl)amino)methyl)-1,7-naphthyridin-8-yl)amino)-[1,1′-biphenyl]-3-yl)amino)-1,7-naphthyridin-3-yl)methyl)amino)-N,N-dimethylacetamide]
< 25 | – | NC(=O)CN1CCc2nc(C(=O)Nc3cccc(-c4cccc(NC(=O)c5nc6c(s5)CN(CC(N)=O)CC6)c4Cl)c3Cl)sc2C1 [Example 90, N,N′-(2,2′-dichloro-[1,1′-biphenyl]-3,3′-diyl)bis(5-(2-amino-2-oxoethyl)-4,5,6,7-tetrahydrothiazolo[5,4-c]pyridine-2-carboxamide)]
< 25 | – | O=C(O)CN1CCc2sc(C(=O)N3CCc4c(-c5cccc6c5CCN6C(=O)c5nc6c(s5)CCN(CC(=O)O)C6)cccc43)nc2C1 [Example 119, 2,2′-(([4,4′-biindoline]-1,1′-dicarbonyl)bis(6,7-dihydrothiazolo[4,5-c]pyridine-2,5(4H)-diyl))diacetic acid]
< 25 | – | Cc1c(NC(=O)c2cn3c(n2)CN(C(C)CO)CC3)cccc1-c1cccc(NC(=O)c2cn3c(n2)CN(C(C)CO)CC3)c1C (stereo not drawn) [Example 36, N,N′-(2,2′-dimethyl-[1,1′-biphenyl]-3,3′-diyl)bis(7-(1-hydroxypropan-2-yl)-5,6,7,8-tetrahydroimidazo[1,2-a]pyrazine-2-carboxamide)]
< 25 | – | CNC(=O)CN1CCc2nc(C(=O)N3CCc4c(-c5cccc6c5CCN6C(=O)c5nc6c(s5)CN(CC(=O)NC)CC6)cccc43)sc2C1 [Example 105, 2,2′-(([4,4′-biindoline]-1,1′-dicarbonyl)bis(6,7-dihydrothiazolo[5,4-c]pyridine-2,5(4H)-diyl))bis(N-methylacetamide)]
< 25 | – | COC(=O)NCCNCc1cnc2c(Nc3cccc(-c4cccc5c4CCN5C(=O)C4=NC5CCN(CC(=O)O)CC5S4)c3C)nccc2c1 (stereo not drawn) [Example 159, 2-(2-(4-(3-((3-(((2-((methoxycarbonyl)amino)ethyl)amino)methyl)-1,7-naphthyridin-8-yl)amino)-2-methylphenyl)indoline-1-carbonyl)-3a,6,7,7a-tetrahydrothiazolo[5,4-c]pyridin-5(4H)-yl)acetic acid]
